Source: patent US20250268903A1, “RXFP1 AGONISTS” (BRISTOL-MYERS SQUIBB COMPANY, priority 2021, published 2025)

Target: T1, human RXFP1 (Homo sapiens, UniProt Q9HBX9)
T1 construct: expressed in transfected cells
T1 sequence (Q9HBX9 1-757): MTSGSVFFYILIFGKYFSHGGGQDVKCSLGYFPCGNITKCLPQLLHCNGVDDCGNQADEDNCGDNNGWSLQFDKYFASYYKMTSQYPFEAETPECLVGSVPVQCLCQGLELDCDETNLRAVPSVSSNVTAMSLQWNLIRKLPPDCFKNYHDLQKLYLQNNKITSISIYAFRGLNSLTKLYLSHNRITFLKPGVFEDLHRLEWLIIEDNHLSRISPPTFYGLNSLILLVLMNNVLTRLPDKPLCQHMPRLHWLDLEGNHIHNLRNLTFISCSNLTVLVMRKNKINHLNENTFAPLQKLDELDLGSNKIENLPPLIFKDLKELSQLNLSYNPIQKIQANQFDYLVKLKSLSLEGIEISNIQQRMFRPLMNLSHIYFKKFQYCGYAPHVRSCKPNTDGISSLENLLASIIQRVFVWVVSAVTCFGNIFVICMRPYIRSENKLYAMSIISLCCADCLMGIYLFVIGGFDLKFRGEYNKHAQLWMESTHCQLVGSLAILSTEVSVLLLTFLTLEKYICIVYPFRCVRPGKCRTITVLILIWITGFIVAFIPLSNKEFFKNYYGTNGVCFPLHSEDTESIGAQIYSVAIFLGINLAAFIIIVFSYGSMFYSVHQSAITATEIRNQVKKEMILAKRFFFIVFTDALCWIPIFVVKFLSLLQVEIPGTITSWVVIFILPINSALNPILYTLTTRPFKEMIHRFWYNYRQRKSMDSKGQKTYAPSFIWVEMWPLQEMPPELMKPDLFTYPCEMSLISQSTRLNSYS
Test: hRXFP1 HEK293 cAMP assay (HTRF)
Type: cell-based
Conditions: HEK293 cells stably expressing human RXFP1, 30 min at room temperature
Summary of the method: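 Intracellular cAMP was read by HTRF, with potency fitted to a 4-parameter logistic curve. Compound exposure (0.010 nM–50 μM final, 2% DMSO) lasted 30 min at room temperature. Cells were hRXFP1-HEK293 at 1500 per well in IBMX-containing (0.5 mM) HEPES-buffered HBSS.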

Compound	EC50 [µM]
COc1ccc(CCCCC(F)(F)F)cc1C(=O)NC1C2CCC(/C2=C/C(F)(F)F)[C@@H]1C(=O)Nc1ccc(F)c(C(F)(F)F)c1 (stereo partly shown) [Example 186, (7Z)-N-[4-fluoro-3-(trifluoromethyl)phe-nyl]-3-[2-methoxy-5-(5,5,5-trifluoropentyl)benza-mido]-7-(2,2,2-trifluoroethylidene)bi-cyclo[2.2.1]heptane-2-carboxamide]	0.28
COc1ccc(CCCn2cc(-c3ccccc3)nn2)cc1C(=O)N[C@@H]1C2CCC(/C2=C/C(F)(F)F)[C@@H]1C(=O)Nc1ccc(F)c(C(F)(F)F)c1 (stereo partly shown) [Example 123]	1.27
COc1ccc(C2CCCC(O)C2)cc1C(=O)N[C@@H]1C2CCC(/C2=C/C(F)(F)F)[C@@H]1C(=O)Nc1ccc(F)c(C(F)(F)F)c1 (single isomer, unassigned) [Example 37]	0.78
COc1ccc(CCCCO)cc1C(=O)N[C@@H]1C2CCC(/C2=C/C2CCC2)[C@@H]1C(=O)Nc1ccc(F)c(C(F)(F)F)c1 (stereo partly drawn) [Example 96, (2S,3R,7Z)-7-(cyclobutylmethyli-dene)-N-[4-fluoro-3-(trifluoromethyl)phe-nyl]-3-[5-(4-hydroxybutyl)-2-methoxybenzamido] bicyclo[2.2.1]heptane-2-carboxamide]	0.046
COc1ccc(CCCNC2CCC2)cc1C(=O)N[C@@H]1C2CCC(/C2=C/C(F)(F)F)[C@@H]1C(=O)Nc1ccc(F)c(C(F)(F)F)c1 (stereo partly drawn) [Example 122, (2S,3R,7Z)-3-{5-[3-(cyclobutylamino)pro-pyl]-2-methoxybenzamido}-N-[4-fluoro-3-(trifluoromethyl)phe-nyl]-7-(2,2,2-trifluoroethylidene)bi-cyclo[2.2.1]heptane-2-carboxamide]	2.81
(1R,4R,7Z)-N-[4- fluoro-3- (trifluoromethyl) phenyl]-3-[5-(3- hydroxypropyl)-2- methoxybenzamido]- 7-[(oxan-3- yl)methylidene] bicyclo[2.2.1]heptane- 2-carboxamide [Example 263]	0.318
COc1ccc(C2CCCC(OC(=O)Nc3ccccc3)C2)cc1C(=O)N[C@@H]1C2CCC(/C2=C/C(F)(F)F)[C@@H]1C(=O)Nc1ccc(F)c(C(F)(F)F)c1 (single isomer, unassigned) [Example 43]	0.157
COc1ccc(CCC(C)(C)O)cc1C(=O)N[C@@H]1C2CCC(/C2=C/C(F)(F)F)[C@@H]1C(=O)Nc1ccc(F)c(C(F)(F)F)c1 (stereo partly shown) [Example 82]	0.125
COc1ccc(CCCOc2ccncc2)cc1C(=O)NC1C2CCC(/C2=C/C(F)(F)F)[C@@H]1C(=O)Nc1ccc(F)c(C(F)(F)F)c1 (stereo partly shown) [Example 104]	0.988
COc1ccc(CCN2CCOC2=O)cc1C(=O)NC1C2CCC(/C2=C/C(F)(F)F)[C@@H]1C(=O)Nc1ccc(F)c(C(F)(F)F)c1 (stereo partly shown) [Example 182, (7Z)-N-[4-fluoro-3-(trifluoromethyl)phe-nyl]-3-{2-methoxy-5-[2-(2-oxo-1,3-oxazolidin-3-yl)ethyl]benzamido}-7-(2,2,2-trifluoroethylidene)bi-cyclo[2.2.1]heptane-2-carboxamide]	0.139
C#Cc1ccc(OC)c(C(=O)N[C@@H]2C3CCC(/C3=C/C(F)(F)F)[C@@H]2C(=O)Nc2ccc(F)c(C(F)(F)F)c2)c1 (stereo partly drawn) [Example 75, (2S,3R,7Z)-3-(5-ethynyl-2-methoxybenzamido)-N-[4-fluoro-3-(trifluoromethyl)phe-nyl]-7-(2,2,2-trifluoroethylidene)bi-cyclo[2.2.1]heptane-2-carboxamide]	0.091
COc1ccc(C[C@@H]2CCC(=O)N2)cc1C(=O)NC1C2CCC(/C2=C/C(F)(F)F)[C@@H]1C(=O)Nc1ccc(F)c(C(F)(F)F)c1 (stereo partly drawn) [Example 183, (7Z)-N-[4-fluoro-3-(trifluoromethyl)phe-nyl]-3-(2-methoxy-5-{[(2S)-5-oxopyrrolidin-2-yl]methyl}benzamido)-7-(2,2,2-trifluoroethylidene)bi-cyclo[2.2.1]heptane-2-carboxamide]	0.85
(2S,3R,7Z)-7- butylidene-N-[4- fluoro-3- (trifluoromethyl)phe- nyl]-3-[5-(3- hydroxy-3- methylbutyl)-2- methoxybenzamido] bicyclo[2.2.1]heptane- 2-carboxamide [Example 88]	0.028
COc1ccc(COCC(=O)O)cc1C(=O)N[C@@H]1C2CCC(/C2=C/c2ccccc2)[C@@H]1C(=O)Nc1ccc(F)c(C(F)(F)F)c1 (stereo partly drawn) [Example 29, 2-[(3-{[(2R,3S,7Z)-3-{[4-fluoro-3-(trifluoromethyl)phe-nyl]carbamoyl}-7-(phenylmethylidene)bicyclo[2.2.1]heptan-2-yl]carbamoyl}-4-methoxyphenyl)meth-oxy]acetic acid]	0.4

The next lines start with the values.

EC50 [µM]	Compound
0.183	COc1ccc(C(=O)NCCCO)cc1C(=O)N[C@H]1[C@@H](C(=O)Nc2ccc(F)c(C(F)(F)F)c2)[C@H]2CC[C@@H]1/C2=C\C1CC1 [Example 229, N3-[(1R,2R,3S,4R,7Z)-7-(cyclopropyl-methylidene)-3-{[4-fluoro-3-(trifluoromethyl)phenyl]carbamoyl}bicyclo[2.2.1]heptan-2-yl]-N1-(3-hydroxypropyl)-4-methoxybenzene-1,3-dicarboxamide]
0.0648	COc1ccc(C(=O)N2CCCC(CO)C2)cc1C(=O)N[C@H]1[C@@H](C(=O)Nc2ccc(F)c(C(F)(F)F)c2)[C@H]2CC[C@@H]1/C2=C\C1CC1 (stereo partly drawn) [Example 234, (1R,2S,3R,4R,7Z)-7-(cyclopropyl-methylidene)-N-[4-fluoro-3-(trifluoromethyl)phenyl]-3-{5-[3-(hydroxymethyl)piperidine-1-carbonyl]-2-methoxybenzamido} bicyclo[2.2.1]heptane-2-carboxamide]
1.29	COc1ccc(COC[C@@H]2C[C@@H]2C(=O)OCc2ccccc2)cc1C(=O)N[C@H]1[C@@H](C(=O)Nc2ccc(F)c(C(F)(F)F)c2)[C@H]2CC[C@@H]1/C2=C\C1CC1 [Example 287, benzyl (1S, 2R)-2-{[(3-{[(1R,3S,4R,7Z)-7-(cyclopropylmethylidene)-3-{[4-fluoro-3-(trifluoromethyl)phenyl]carbamoyl}bicyclo[2.2.1]heptan-2-yl]carbamoyl}-4-methoxyphenyl)methoxy]methyl} cyclopropane-1-carboxylate]
0.603	CCN1CCN(S(=O)(=O)c2ccc(OC)c(C(=O)N[C@H]3[C@@H](C(=O)Nc4ccc(F)c(C(F)(F)F)c4)[C@H]4CC[C@@H]3/C4=C\C(F)(F)F)c2)CC1 [Example 209]
0.0215	COc1ccc(C2CC2C(=O)N2CCC(O)CC2)cc1C(=O)N[C@H]1[C@@H](C(=O)Nc2ccc(F)c(C(F)(F)F)c2)[C@H]2CC[C@@H]1/C2=C\C(F)(F)F (single isomer, unassigned) [Example 323]
0.714	COc1ccc(S(=O)(=O)N2CCN(C)CC2CO)cc1C(=O)N[C@H]1[C@@H](C(=O)Nc2ccc(F)c(C(F)(F)F)c2)[C@H]2CC[C@@H]1/C2=C\C(F)(F)F (stereo partly shown) [Example 218]
0.0752	COc1ccc(C2CC3CC(O)CC32)cc1C(=O)N[C@H]1[C@@H](C(=O)Nc2ccc(F)c(C(F)(F)F)c2)[C@H]2CC[C@@H]1/C2=C\C1CC1 (single isomer, unassigned) [Example 343]
0.116	COc1ccc(CN2O[C@H]3COC[C@H]3C2=O)cc1C(=O)N[C@H]1[C@@H](C(=O)Nc2ccc(F)c(C(F)(F)F)c2)[C@H]2CC[C@@H]1/C2=C\C1CC1 [Example 299, (1R,2S,3R,4R,7Z)-3-(5-{[(3aR,6aR)-3-oxo-hexahydrofuro[3,4-d][1,2]oxazol-2-yl]methyl}-2-methoxybenzamido)-7-(cyclopropylmethylidene)-N-[4-fluoro-3-(trifluoromethyl)phenyl]bicyclo[2.2.1]heptane-2-carboxamide]
0.0119	COc1ccc(C(=O)NCCS(C)(=O)=O)cc1C(=O)N[C@H]1[C@@H](C(=O)Nc2ccc(F)c(C(F)(F)F)c2)[C@H]2CC[C@@H]1/C2=C\C1CC1 [Example 253, N3-[(1R,2R, 3S,4R,7Z)-7-(cyclopropylmethyl-idene)-3-{[4-fluoro-3-(trifluoromethyl)phenyl]carbamoyl}bicyclo[2.2.1]heptan-2-yl]-N1-(2-methanesulfonylethyl)-4-methoxybenzene-1,3-dicarboxamide]
0.00095	COc1ccc(C(=O)NCC2(S(C)(=O)=O)CC2)cc1C(=O)N[C@H]1[C@@H](C(=O)Nc2ccc(F)c(C(F)(F)F)c2)[C@H]2CC[C@@H]1/C2=C\C1CC1 [Example 232, N3-[(1R,2R,3S,4R,7Z)-7-(cyclopropyl-methylidene)-3-{[4-fluoro-3-(trifluoromethyl)phenyl]carbamoyl}bicyclo[2.2.1]heptan-2-yl]-NI-[(1-methanesulfonyl-cyclopropyl)methyl]-4-methoxybenzene-1,3-dicarboxamide]
0.0609	COc1ccc(C2CC3CC(CO)CC32)cc1C(=O)N[C@H]1[C@@H](C(=O)Nc2ccc(F)c(C(F)(F)F)c2)[C@H]2CC[C@@H]1/C2=C\C1CC1 (single isomer, unassigned) [Example 349]
